Literature values, collected in patent publication US20180162913A1, “METHODS FOR PO[…] IMMUNE RESPONSE USING DEPOT-FORMING AND NON-DEPOT-FORMING VACCINES” (IMMUNOVACCINE TECHNOLOGIES INC., priority 2015, published 2018).

Q: Which “bioavailability, intravenous infusion versus parenteral and oral administration” value (in vivo) does the source give for O=P1(N(CCCl)CCCl)NCCCO1 (stereo not drawn) [Cyclophosphamide (CPA), N,N-bis(2-chloroethyl)-1,3,2-oxazaphosphinan-2-amine 2-oxide] here?
A: little difference in bioavailability

Q: And the “Total systemic clearance of CPA and its metabolites” value (patients)?
A: 5 to 9 h

Q: What about the “peak plasma levels of the parent, variation between patients” value (patients) of the same compound?
A: 3 to 11 h
